Test results: patent publication US7378375B1, “Substituted pyridine herbicides” (Syngenta Crop Protection, Inc., priority 2000, dated 2008)

Tests used:
[1] = tested on: Monocotyledonous and dicotyledonous test plants; assay: Herbicidal action before emergence of the plants (pre-emergence action), greenhouse pot test, 9-level rating after 4 weeks; assay type: in vivo; design: key: 9-level scale: 1 = complete damage, 9 = no effect; conditions: 250 g/ha, rated after 4 weeks, 9-level scale
Procedure: Herbicidal Action Before Emergence of the Plants (Pre-Emergence Action)
(§1) Monocotyledonous and dicotyledonous test plants are sown in standard soil in pots. Immediately after sowing, the test substances are sprayed on at an optimum dosage (500 l of water/ha) as an aqueous suspension (prepared from a wettable powder (example F3, b) according to WO 97/34485) or emulsion (prepared from an emulsion concentrate (example F1, c) according to WO 97/34485). The test plants are then grown under optimum conditions in a greenhouse.
After a test period of 4 weeks, the test is evaluated using a 9-level scale of ratings (1=complete damage, 9=no effect). Ratings of 1 to 4 (in particular 1 to 3) mean good to very good herbicidal action.

[2] = tested on: Monocotyledonous and dicotyledonous test plants; assay: Post-emergence herbicidal action, greenhouse pot test, sprayed at the 2- to 3-leaf stage, 9-level rating after 2 to 3 weeks; assay type: in vivo; design: key: 9-level scale: 1 = complete damage, 9 = no effect; conditions: 250 g/ha, rated after 2 to 3 weeks, 9-level scale
Procedure: Post-Emergence Herbicidal Action
as §1, with “grown” for “sown”, “At the 2- to 3-leaf stage of the test plants,” for “Immediately after sowing,”, “sprayed” for “sprayed on”, “at” for “at an”, “grown further” for “grown”
After a test period of 2 to 3 weeks, the test is evaluated using a 9-level scale of rating (1=complete damage, 9=no effect). Ratings of 1 to 4 (in particular 1 to 3) mean good to very good herbicidal action.

In the case of `CCN(CC)CC.COCCOCc1nc(C(F)(F)F)ccc1C(=O)C1=C(O)C2CCC(C2)C1=O` (stereo not drawn) [A10-B52 (Et3NH+)], the “Pre-emergence action rating, Abutilon” value [1] is reported as 1, the “Pre-emergence action rating, Amaranthus” value [1] is reported as 1 and the “Pre-emergence action rating, Chenop.” value [1] is reported as 1. For the same compound, the “Pre-emergence action rating, Digitaria” value [1] was 1, the “Pre-emergence action rating, Echino.” value [1] was 2 and the “Pre-emergence action rating, Panicum” value [1] was 1. The “Post-emergence action rating, Abutilon” value [2] was 2, the “Post-emergence action rating, Amaranth” value [2] was 2 and the “Post-emergence action rating, Chenop.” value [2] was 1. The “Post-emergence action rating, Digitaria” value [2] was 2, the “Post-emergence action rating, Echino.” value [2] was 2 and the “Post-emergence action rating, Ipopur.” value [2] was 2. The “Post-emergence action rating, Panicum” value [2] was 2 and the “Post-emergence action rating, Xanth.” value [2] was 2.
With `COCCOCc1nc(C(F)(F)F)ccc1C(=O)C1=C(O)C2CCC(C2)C1=O` (stereo not drawn) [A10-B52, (H3), 4-Hydroxy-3-[2-(2-methoxyethoxymethyl)-6-trifluoromethylpyridine-3-carbonyl]-bicyclo[3.2.1]oct-3-en-2-one] the “Pre-emergence action rating, Abutilon” value [1] was 1, the “Pre-emergence action rating, Amaranthus” value [1] was 1 and the “Pre-emergence action rating, Chenop.” value [1] was 1. For the same compound, the “Pre-emergence action rating, Digitaria” value [1] was 1, the “Pre-emergence action rating, Echino.” value [1] was 1 and the “Pre-emergence action rating, Panicum” value [1] was 1. For the same compound, the “Post-emergence action rating, Abutilon” value [2] was 1, the “Post-emergence action rating, Amaranth” value [2] was 2 and the “Post-emergence action rating, Chenop.” value [2] was 1. For the same compound, the “Post-emergence action rating, Digitaria” value [2] was 1, the “Post-emergence action rating, Echino.” value [2] was 2 and the “Post-emergence action rating, Ipopur.” value [2] was 2. The “Post-emergence action rating, Panicum” value [2] was 1 and the “Post-emergence action rating, Xanth.” value [2] was 2.
In the case of `COCCOCc1nc(C(F)(F)F)ccc1C(=O)C1=C(O)CC(C)CC1=O` (stereo not drawn) [A10-B111], the “Pre-emergence action rating, Abutilon” value [1] is reported as 1, the “Pre-emergence action rating, Amaranthus” value [1] is reported as 1 and the “Pre-emergence action rating, Digitaria” value [1] is reported as 1. The “Pre-emergence action rating, Echino.” value [1] was 1, the “Pre-emergence action rating, Panicum” value [1] was 1 and the “Post-emergence action rating, Abutilon” value [2] was 3. For the same compound, the “Post-emergence action rating, Amaranth” value [2] was 2, the “Post-emergence action rating, Chenop.” value [2] was 1 and the “Post-emergence action rating, Digitaria” value [2] was 2. The “Post-emergence action rating, Echino.” value [2] was 3, the “Post-emergence action rating, Ipopur.” value [2] was 3 and the “Post-emergence action rating, Panicum” value [2] was 2. The “Post-emergence action rating, Xanth.” value [2] was 3.
In the case of `COCCOCc1nc(C(F)(F)F)ccc1C(=O)c1c(C)nn(C)c1O` [A10-C2 (H6), (5-Hydroxy-1,3-dimethyl-1H-pyrazol-4-yl)-[2-(2-methoxyethoxymethyl)-6-trifluoromethylpyridin-3-yl]methanone], the “Pre-emergence action rating, Abutilon” value [1] is reported as 1, the “Pre-emergence action rating, Amaranthus” value [1] is reported as 2 and the “Pre-emergence action rating, Chenop.” value [1] is reported as 1. For the same compound, the “Pre-emergence action rating, Digitaria” value [1] was 3, the “Pre-emergence action rating, Echino.” value [1] was 3 and the “Pre-emergence action rating, Panicum” value [1] was 3. The “Post-emergence action rating, Abutilon” value [2] was 2, the “Post-emergence action rating, Amaranth” value [2] was 1 and the “Post-emergence action rating, Chenop.” value [2] was 1. For the same compound, the “Post-emergence action rating, Digitaria” value [2] was 4, the “Post-emergence action rating, Echino.” value [2] was 3 and the “Post-emergence action rating, Ipopur.” value [2] was 3. The “Post-emergence action rating, Panicum” value [2] was 2 and the “Post-emergence action rating, Xanth.” value [2] was 1.
With `COCCOCc1nc(C(F)(F)F)ccc1C(=O)c1cnn(C)c1O` [A10-C5] the “Pre-emergence action rating, Abutilon” value [1] was 1, the “Pre-emergence action rating, Amaranthus” value [1] was 1 and the “Pre-emergence action rating, Chenop.” value [1] was 1. The “Pre-emergence action rating, Digitaria” value [1] was 3, the “Pre-emergence action rating, Echino.” value [1] was 1 and the “Pre-emergence action rating, Panicum” value [1] was 2. The “Post-emergence action rating, Abutilon” value [2] was 2, the “Post-emergence action rating, Amaranth” value [2] was 1 and the “Post-emergence action rating, Chenop.” value [2] was 1. The “Post-emergence action rating, Digitaria” value [2] was 2, the “Post-emergence action rating, Echino.” value [2] was 2 and the “Post-emergence action rating, Ipopur.” value [2] was 2. The “Post-emergence action rating, Panicum” value [2] was 2 and the “Post-emergence action rating, Xanth.” value [2] was 2.
`COCCOCc1nc(C(F)(F)F)ccc1C(=O)c1cnn(C)c1OS(C)(=O)=O` [A10-C28] was tested, and the “Pre-emergence action rating, Abutilon” value [1] was 1, the “Pre-emergence action rating, Amaranthus” value [1] was 1 and the “Pre-emergence action rating, Chenop.” value [1] was 1. For the same compound, the “Pre-emergence action rating, Digitaria” value [1] was 3, the “Pre-emergence action rating, Echino.” value [1] was 2 and the “Pre-emergence action rating, Panicum” value [1] was 1. For the same compound, the “Post-emergence action rating, Abutilon” value [2] was 3, the “Post-emergence action rating, Amaranth” value [2] was 2 and the “Post-emergence action rating, Chenop.” value [2] was 1. For the same compound, the “Post-emergence action rating, Digitaria” value [2] was 4, the “Post-emergence action rating, Echino.” value [2] was 4 and the “Post-emergence action rating, Ipopur.” value [2] was 3. For the same compound, the “Post-emergence action rating, Panicum” value [2] was 4 and the “Post-emergence action rating, Xanth.” value [2] was 3.
For `COCCOCc1nc(C(F)(F)F)ccc1C(=O)c1cnn(C)c1OS(=O)(=O)c1ccc(C)cc1` [A10-C29], the “Pre-emergence action rating, Abutilon” value [1] was 1, the “Pre-emergence action rating, Amaranthus” value [1] was 1 and the “Pre-emergence action rating, Digitaria” value [1] was 2. For the same compound, the “Pre-emergence action rating, Echino.” value [1] was 1, the “Pre-emergence action rating, Panicum” value [1] was 2 and the “Post-emergence action rating, Abutilon” value [2] was 2. The “Post-emergence action rating, Amaranth” value [2] was 2, the “Post-emergence action rating, Chenop.” value [2] was 1 and the “Post-emergence action rating, Digitaria” value [2] was 3. The “Post-emergence action rating, Echino.” value [2] was 3, the “Post-emergence action rating, Ipopur.” value [2] was 1 and the “Post-emergence action rating, Panicum” value [2] was 2. For the same compound, the “Post-emergence action rating, Xanth.” value [2] was 2.
In the case of `CCOCCOCc1nc(C(F)(F)F)ccc1C(=O)C1=C(O)C2CCC(C2)C1=O` (stereo not drawn) [A11-B52], the “Pre-emergence action rating, Abutilon” value [1] is reported as 1, the “Pre-emergence action rating, Amaranthus” value [1] is reported as 2 and the “Pre-emergence action rating, Chenop.” value [1] is reported as 1. The “Pre-emergence action rating, Digitaria” value [1] was 1, the “Pre-emergence action rating, Echino.” value [1] was 1 and the “Pre-emergence action rating, Panicum” value [1] was 1. The “Post-emergence action rating, Abutilon” value [2] was 2, the “Post-emergence action rating, Amaranth” value [2] was 1 and the “Post-emergence action rating, Chenop.” value [2] was 1. The “Post-emergence action rating, Digitaria” value [2] was 1, the “Post-emergence action rating, Echino.” value [2] was 2 and the “Post-emergence action rating, Ipopur.” value [2] was 2. For the same compound, the “Post-emergence action rating, Panicum” value [2] was 1 and the “Post-emergence action rating, Xanth.” value [2] was 2.
`CCOCCOCc1nc(C(F)(F)F)ccc1C(=O)c1cnn(C)c1O` [A11-C5] was tested, and the “Pre-emergence action rating, Abutilon” value [1] was 1, the “Pre-emergence action rating, Amaranthus” value [1] was 1 and the “Pre-emergence action rating, Chenop.” value [1] was 1. The “Pre-emergence action rating, Digitaria” value [1] was 2, the “Pre-emergence action rating, Echino.” value [1] was 1 and the “Pre-emergence action rating, Panicum” value [1] was 1. For the same compound, the “Post-emergence action rating, Abutilon” value [2] was 2, the “Post-emergence action rating, Amaranth” value [2] was 2 and the “Post-emergence action rating, Chenop.” value [2] was 1. For the same compound, the “Post-emergence action rating, Digitaria” value [2] was 2, the “Post-emergence action rating, Echino.” value [2] was 2 and the “Post-emergence action rating, Ipopur.” value [2] was 2. For the same compound, the “Post-emergence action rating, Panicum” value [2] was 1 and the “Post-emergence action rating, Xanth.” value [2] was 2.
In the case of `CCOCCOCc1nc(C(F)(F)F)ccc1C(=O)c1cnn(C)c1OS(C)(=O)=O` [A11-C28], the “Pre-emergence action rating, Abutilon” value [1] is reported as 2, the “Pre-emergence action rating, Amaranthus” value [1] is reported as 1 and the “Pre-emergence action rating, Chenop.” value [1] is reported as 1. The “Pre-emergence action rating, Digitaria” value [1] was 2, the “Pre-emergence action rating, Echino.” value [1] was 1 and the “Pre-emergence action rating, Panicum” value [1] was 2. The “Post-emergence action rating, Abutilon” value [2] was 3, the “Post-emergence action rating, Amaranth” value [2] was 2 and the “Post-emergence action rating, Chenop.” value [2] was 1. For the same compound, the “Post-emergence action rating, Digitaria” value [2] was 4, the “Post-emergence action rating, Echino.” value [2] was 4 and the “Post-emergence action rating, Ipopur.” value [2] was 3. For the same compound, the “Post-emergence action rating, Panicum” value [2] was 3 and the “Post-emergence action rating, Xanth.” value [2] was 3.
With `C#CCOCc1nc(C(F)(F)F)ccc1C(=O)C1=C(O)C2CCC(C2)C1=O` (stereo not drawn) [A18-B52] the “Pre-emergence action rating, Abutilon” value [1] was 2, the “Pre-emergence action rating, Amaranthus” value [1] was 2 and the “Pre-emergence action rating, Digitaria” value [1] was 1. For the same compound, the “Pre-emergence action rating, Echino.” value [1] was 1, the “Pre-emergence action rating, Panicum” value [1] was 1 and the “Post-emergence action rating, Abutilon” value [2] was 1. The “Post-emergence action rating, Amaranth” value [2] was 1, the “Post-emergence action rating, Chenop.” value [2] was 1 and the “Post-emergence action rating, Digitaria” value [2] was 1. The “Post-emergence action rating, Echino.” value [2] was 2, the “Post-emergence action rating, Ipopur.” value [2] was 2 and the “Post-emergence action rating, Panicum” value [2] was 1. For the same compound, the “Post-emergence action rating, Xanth.” value [2] was 2.
In the case of `C=CCOCc1nc(C(F)(F)F)ccc1C(=O)C1=C(O)C2CCC(C2)C1=O` (stereo not drawn) [A19-B52], the “Pre-emergence action rating, Abutilon” value [1] is reported as 1, the “Pre-emergence action rating, Amaranthus” value [1] is reported as 2 and the “Pre-emergence action rating, Digitaria” value [1] is reported as 1. For the same compound, the “Pre-emergence action rating, Echino.” value [1] was 1, the “Pre-emergence action rating, Panicum” value [1] was 1 and the “Post-emergence action rating, Abutilon” value [2] was 1. For the same compound, the “Post-emergence action rating, Amaranth” value [2] was 1, the “Post-emergence action rating, Chenop.” value [2] was 1 and the “Post-emergence action rating, Digitaria” value [2] was 1. For the same compound, the “Post-emergence action rating, Echino.” value [2] was 2, the “Post-emergence action rating, Ipopur.” value [2] was 1 and the “Post-emergence action rating, Panicum” value [2] was 1. The “Post-emergence action rating, Xanth.” value [2] was 2.
For `CC#CCOCc1nc(C(F)(F)F)ccc1C(=O)C1=C(O)C2CCC(C2)C1=O` (stereo not drawn) [A20-B52], the “Pre-emergence action rating, Abutilon” value [1] was 3, the “Pre-emergence action rating, Amaranthus” value [1] was 3 and the “Pre-emergence action rating, Digitaria” value [1] was 1. For the same compound, the “Pre-emergence action rating, Echino.” value [1] was 1, the “Pre-emergence action rating, Panicum” value [1] was 1 and the “Post-emergence action rating, Abutilon” value [2] was 2. The “Post-emergence action rating, Amaranth” value [2] was 2, the “Post-emergence action rating, Chenop.” value [2] was 1 and the “Post-emergence action rating, Digitaria” value [2] was 2. The “Post-emergence action rating, Echino.” value [2] was 2, the “Post-emergence action rating, Ipopur.” value [2] was 2 and the “Post-emergence action rating, Panicum” value [2] was 1. For the same compound, the “Post-emergence action rating, Xanth.” value [2] was 2.
